Legend:
[1] = tested on: human retinal microvascular endothelial cells (HRMECs); assay: tube formation assay in HRMECs; assay type: cell-based; settings: 25 μM ginsenoside, 4 hours, vs DMSO negative control and VEGF-A positive control
Experimental: (§1) The angiogenesis-promoting activities between human umbilical vascular endothelial cells (HUVECs) and human retinal microvascular endothelial cells (HRMECs) using 10 kinds of ginsenoside compounds (CK, Rh2, Rg3, Rb1, F2, Rd, Re, Rg1, Rh1, or F1). That is, HUVECs or HRMECs were cultured in an incubator (5% CO2 and 37° C.) using 2% FBS, EGM-2 (Lonza, Walkersville, Md., USA) medium. A 96-well plate was coated with Matrigel (BD Biosciences) for 1 hour. Then, HUVECs or HRMECs (10^4 cells/well, respectively), which were mixed with a 0.1% FBS-containing EBM-2 medium respectively treated with 25 μM of ginsenoside compounds (CK, Rh2, Rg3, Rb1, F2, Rd, Re, Rg1, Rh1, or F1), were seeded on the 96-well plate. After 4 hours of incubation, a tube formation assay was performed and the number of tubes formed was compared by microscopic observation and photographing (FIGS. 1a, 1b, 2a, and 2b). In particular, the cells cultured after treating with DMSO instead of ginsenoside were used as a negative control, and the cells cultured after treating with VEGF-A, which is known to promote angiogenesis, were used as a positive control.
(§2) The HUVECs or HRMECs, which were cultured by the method of Example 1, were cultured after treating at various concentrations (12.5, 25, or 50 μM) of ginsenoside F1 or Rh1 selected from Example 1 for 4 hours, and the number of tubes formed was compared by performing a tube formation assay (FIGS. 3 and 4). In particular, the cells cultured after treating with DMSO instead of ginsenoside were used as a negative control and the cells cultured after treating with VEGF-A, which is known to promote angiogenesis, were used as a positive control.

[2] = tested on: human umbilical vascular endothelial cells (HUVECs); assay: tube formation assay in HUVECs; assay type: cell-based; settings: 25 μM ginsenoside, 4 hours, vs DMSO negative control and VEGF-A positive control
Experimental: as §1, §2

HUVECs [3] = assay: MTT cell proliferation assay in HUVECs; assay type: cell-based, human; settings: 48 hours, concentrations 0, 3.125, 6.25, 12.5, or 25 μM
Experimental: The HUVECs or HRMECs, which were cultured by the method of Example 1, were cultured after treating at various concentrations (0, 3.125, 6.25, 12.5, or 25 μM) of three kinds of ginsenosides (F1, Rh1, or Rg1), which were confirmed to promote tube formation in Example 1, for 48 hours, and the level of cell proliferation was compared by performing the MTT assay with respect to the cultured cells (FIGS. 5 and 6). In particular, the cells cultured after treating with DMSO instead of ginsenoside were used as a negative control, and the cells cultured after treating with VEGF-A, which is known to promote angiogenesis, were used as a positive control.

HUVECs [4] = assay: vascular permeability assay, VEGF-A-treated HUVECs; assay type: cell-based, human; settings: for vascular leakage induced by VEGF-A: HUVECs pretreated with 25 μM ginsenoside for 1 hour, then VEGF-A; for level of vascular leakage, pretreatment plus VEGF-A compared to ginsenoside alone: HUVECs, 25 μM ginsenoside pretreatment 1 hour then VEGF-A vs ginsenoside alone
Experimental: The HUVECs, cultured by a method described in Example 1, were pretreated with 25 μM ginsenoside F1 or Rh1 for 1 hour selected from Example 1, treated with VEGF-A, and then subjected to a vascular permeability assay (FIG. 9). In particular, the cells cultured after treating with DMSO instead of ginsenoside were used as a negative control; the cells cultured after treating with VEGF-A, which is known to promote angiogenesis, were used as a positive control; and the cells pretreated with ginsenoside F1 or Rh1 and not treated with VEGF-A were used as a comparative group.

ICR mice = assay: VEGF-A-induced vascular leakage in mouse ears (Evans blue); assay type: in vivo; settings: ear intradermal 10 μL, ginsenoside 1.25 μM with VEGF-A 250 μg, 30 minutes
Experimental: Seven-week-old male ICR mice were injected with 1% Evans blue dye (200 μL) into the tail vein and allowed to react for 10 minutes to dye the blood in blue.
Then, the mice were intradermally injected in an amount of 10 μL through the ears with PBS (negative control), VEGF-A (250 μg, positive control), ginsenoside F1 (1.25 μM), ginsenoside Rh1 (1.25 μM), VEGF-A (250 μg)/ginsenoside F1 (1.25 μM), or VEGF-A (250 μg)/ginsenoside Rh1 (1.25 μM), respectively.
Thirty minutes thereafter, the mice were subjected to euthanasia and their ears were removed. After confirming the amount of blood leakage by the naked eye (FIG. 10A), the ears were put in formamide and fixed at 37° C. for 24 hours. Then, the effects of F1 or Rh1 on the inhibition of blood leakage were quantitatively evaluated by measuring the absorbance at 620 nm (FIG. 10B).

CC(C)=CCCC(C)(OC1OC(CO)C(O)C(O)C1O)C1CCC2(C)C1C(O)CC1C3(C)CCC(O)C(C)(C)C3C(O)CC12C [ginsenoside F1, 20-O-β-D-glucopyranosyl-20(S)-protopanaxatriol]
number of tubes formed (tube formation) [1]: effect of promoting tube formation at a higher level compared to that of the positive control
number of tubes formed (tube formation) [2]: effect of promoting tube formation at a higher level compared to that of the positive control
promotion of cell proliferation (HUVECs [3]): about 20%
vascular leakage induced by VEGF-A (HUVECs [4]): vascular leakage was inhibited by the pretreatment
level of vascular leakage, pretreatment plus VEGF-A compared to ginsenoside alone (HUVECs [4]): further reduced compared to when the HUVECs were treated with ginsenoside F1 or Rh1 alone
vascular leakage symptoms induced by VEGF-A (Evans blue, absorbance at 620 nm) (ICR mice): effectively inhibit the vascular leakage symptoms induced by VEGF-A

CC(C)=CCC[C@](C)(O[C@@H]1O[C@H](CO)[C@@H](O)[C@H](O)[C@H]1O)[C@H]1CC[C@]2(C)[C@@H]1[C@H](O)C[C@@H]1[C@@]3(C)CC[C@H](O[C@@H]4O[C@H](CO)[C@@H](O)[C@H](O)[C@H]4O[C@@H]4O[C@H](CO)[C@@H](O)[C@H](O)[C@H]4O)C(C)(C)[C@@H]3CC[C@]12C [ginsenoside Rd]
number of tubes formed (tube formation) [1]: effect of promoting tube formation
number of tubes formed (tube formation) [2]: effect of promoting tube formation

CC(C)=CCC[C@](C)(O[C@@H]1O[C@H](CO)[C@@H](O)[C@H](O)[C@H]1O)[C@H]1CC[C@]2(C)[C@@H]1[C@H](O)C[C@@H]1[C@@]3(C)CC[C@H](O)C(C)(C)[C@@H]3[C@@H](O[C@@H]3O[C@H](CO)[C@@H](O)[C@H](O)[C@H]3O)C[C@]12C [ginsenoside Rg1]
number of tubes formed (tube formation) [1]: effect of promoting tube formation
number of tubes formed (tube formation) [2]: effect of promoting tube formation
promotion of cell proliferation (HUVECs [3]): about 60%

ginsenoside Rb2
number of tubes formed (tube formation) [1]: effect of inhibiting tube formation
number of tubes formed (tube formation) [2]: effect of inhibiting tube formation

CC(C)=CCC[C@](C)(O)[C@H]1CC[C@]2(C)[C@@H]1[C@H](O)C[C@@H]1[C@@]3(C)CC[C@H](O[C@@H]4O[C@H](CO)[C@@H](O)[C@H](O)[C@H]4O[C@@H]4O[C@H](CO)[C@@H](O)[C@H](O)[C@H]4O)C(C)(C)[C@@H]3CC[C@]12C [ginsenoside Rg3]
number of tubes formed (tube formation) [1]: effect of inhibiting tube formation
number of tubes formed (tube formation) [2]: effect of inhibiting tube formation

CC(C)=CCC[C@](C)(O[C@@H]1O[C@H](CO[C@@H]2O[C@H](CO)[C@@H](O)[C@H](O)[C@H]2O)[C@@H](O)[C@H](O)[C@H]1O)[C@H]1CC[C@]2(C)[C@@H]1[C@H](O)C[C@@H]1[C@@]3(C)CC[C@H](O[C@@H]4O[C@H](CO)[C@@H](O)[C@H](O)[C@H]4O[C@@H]4O[C@H](CO)[C@@H](O)[C@H](O)[C@H]4O)C(C)(C)[C@@H]3CC[C@]12C [ginsenoside Rb1]
number of tubes formed (tube formation) [1]: effect of promoting tube formation
number of tubes formed (tube formation) [2]: did not show any noticeable difference

CC(C)=CCC[C@](C)(O[C@@H]1O[C@H](CO)[C@@H](O)[C@H](O)[C@H]1O)[C@H]1CC[C@]2(C)[C@@H]1[C@H](O)C[C@@H]1[C@@]3(C)CC[C@H](O)C(C)(C)[C@@H]3[C@@H](O[C@@H]3O[C@H](CO)[C@@H](O)[C@H](O)[C@H]3O[C@@H]3O[C@@H](C)[C@H](O)[C@@H](O)[C@H]3O)C[C@]12C [ginsenoside Re]
number of tubes formed (tube formation) [1]: effect of promoting tube formation
number of tubes formed (tube formation) [2]: effect of promoting tube formation

CC(C)=CCC[C@](C)(O[C@@H]1O[C@H](CO)[C@@H](O)[C@H](O)[C@H]1O)[C@H]1CC[C@]2(C)[C@@H]1[C@H](O)C[C@@H]1[C@@]3(C)CC[C@H](O)C(C)(C)[C@@H]3CC[C@]12C [ginsenoside CK]
number of tubes formed (tube formation) [1]: effect of inhibiting tube formation
number of tubes formed (tube formation) [2]: effect of inhibiting tube formation

CC(C)=CCCC(C)(O)C1CCC2(C)C1C(O)CC1C3(C)CCC(O)C(C)(C)C3C(OC3OC(CO)C(O)C(O)C3O)CC12C [ginsenoside Rh1, 6-O-β-D-glucopyranoside-20(S)-protopanaxatriol]
number of tubes formed (tube formation) [1]: effect of promoting tube formation at a higher level compared to that of the positive control
number of tubes formed (tube formation) [2]: effect of promoting tube formation at a higher level compared to that of the positive control
promotion of cell proliferation (HUVECs [3]): about 100%
vascular leakage induced by VEGF-A (HUVECs [4]): vascular leakage was inhibited by the pretreatment
level of vascular leakage, pretreatment plus VEGF-A compared to ginsenoside alone (HUVECs [4]): further reduced compared to when the HUVECs were treated with ginsenoside F1 or Rh1 alone
vascular leakage symptoms induced by VEGF-A (Evans blue, absorbance at 620 nm) (ICR mice): effectively inhibit the vascular leakage symptoms induced by VEGF-A

CC(C)=CCC[C@](C)(O[C@@H]1O[C@H](CO)[C@@H](O)[C@H](O)[C@H]1O)[C@H]1CC[C@]2(C)[C@@H]1[C@H](O)C[C@@H]1[C@@]3(C)CC[C@H](O[C@@H]4O[C@H](CO)[C@@H](O)[C@H](O)[C@H]4O)C(C)(C)[C@@H]3CC[C@]12C [ginsenoside F2]
number of tubes formed (tube formation) [1]: effect of promoting tube formation
number of tubes formed (tube formation) [2]: did not show any noticeable difference

— patent publication US10391110B2, “Composition for preventing or treating vascular leak syndrome” (INTELLIGENT SYNTHETIC BIOLOGY CENTER, priority 2015, dated 2019)
